Assay results from PubChem BioAssay (NCI).
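Tested at 5 concentrations; 48 h exposure; 96-well plates; endpoints linearly interpolated, else capped at highest concentration. TGI: concentration producing complete growth inhibition.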

Legend:
Test in all cases: NCI tumour cell line growth inhibition, 48 h
UACC-62 melanoma = tested on: UACC-62 melanoma
HCT-15 colon = tested on: HCT-15 colon
SR leukemia = tested on: SR leukemia
K-562 leukemia = tested on: K-562 leukemia
OVCAR-4 ovarian = tested on: OVCAR-4 ovarian
SK-MEL-28 melanoma = tested on: SK-MEL-28 melanoma
OVCAR-3 ovarian = tested on: OVCAR-3 ovarian
NCI/ADR-RES ovarian = tested on: NCI/ADR-RES ovarian
SN12C renal = tested on: SN12C renal
SK-MEL-2 melanoma = tested on: SK-MEL-2 melanoma
IGROV1 ovarian = tested on: IGROV1 ovarian
BT-549 breast = tested on: BT-549 breast
OVCAR-5 ovarian = tested on: OVCAR-5 ovarian
DLD-1 colon = tested on: DLD-1 colon
DU-145 prostate = tested on: DU-145 prostate
HS 578T breast = tested on: HS 578T breast
RXF 393 renal = tested on: RXF 393 renal
SK-OV-3 ovarian = tested on: SK-OV-3 ovarian
HOP-62 NSCLC = tested on: HOP-62 NSCLC
A549 NSCLC = tested on: A549 NSCLC
HT29 colon = tested on: HT29 colon
HCT-116 colon = tested on: HCT-116 colon
DMS 273 small cell lung = tested on: DMS 273 small cell lung
MALME-3M melanoma = tested on: MALME-3M melanoma
MDA-MB-435 = tested on: MDA-MB-435
XF 498 CNS = tested on: XF 498 CNS
RPMI-8226 leukemia = tested on: RPMI-8226 leukemia
LOX IMVI melanoma = tested on: LOX IMVI melanoma
EKVX NSCLC = tested on: EKVX NSCLC
M14 melanoma = tested on: M14 melanoma
SNB-19 CNS = tested on: SNB-19 CNS
CCRF-CEM leukemia = tested on: CCRF-CEM leukemia
NCI-H522 lung = tested on: NCI-H522 lung
MOLT-4 leukemia = tested on: MOLT-4 leukemia
UO-31 renal = tested on: UO-31 renal
KM12 colon = tested on: KM12 colon
NCI-H23 lung = tested on: NCI-H23 lung
SF-539 CNS = tested on: SF-539 CNS
SF-268 CNS = tested on: SF-268 CNS
SF-295 CNS = tested on: SF-295 CNS
NCI-H460 lung = tested on: NCI-H460 lung
PC-3 prostate = tested on: PC-3 prostate
COLO 205 colon = tested on: COLO 205 colon
SW-620 colon = tested on: SW-620 colon
HOP-18 NSCLC = tested on: HOP-18 NSCLC
NCI-H226 lung = tested on: NCI-H226 lung
HL-60(TB) leukemia = tested on: HL-60(TB) leukemia
CAKI-1 renal = tested on: CAKI-1 renal
MDA-N = tested on: MDA-N
SNB-75 CNS = tested on: SNB-75 CNS
RXF-631 renal = tested on: RXF-631 renal
MDA-MB-231 breast = tested on: MDA-MB-231 breast
T-47D breast = tested on: T-47D breast
MCF7 breast = tested on: MCF7 breast
HOP-92 NSCLC = tested on: HOP-92 NSCLC
HCC-2998 colon = tested on: HCC-2998 colon
786-0 renal = tested on: 786-0 renal
ACHN renal = tested on: ACHN renal
TK-10 renal = tested on: TK-10 renal
KM20L2 colon = tested on: KM20L2 colon
LXFL 529 NSCLC = tested on: LXFL 529 NSCLC
UACC-257 melanoma = tested on: UACC-257 melanoma
SK-MEL-5 melanoma = tested on: SK-MEL-5 melanoma
U251 CNS = tested on: U251 CNS
A498 renal = tested on: A498 renal
OVCAR-8 ovarian = tested on: OVCAR-8 ovarian
M19-MEL melanoma = tested on: M19-MEL melanoma
P388/ADR leukemia = tested on: P388/ADR leukemia
SNB-78 CNS = tested on: SNB-78 CNS
DMS 114 small cell lung = tested on: DMS 114 small cell lung
SN12K1 renal = tested on: SN12K1 renal
P388 leukemia = tested on: P388 leukemia

`CCCCCCCCCCCCCCCCSS(C)(=O)=O` was tested. Which TGI (UACC-62 melanoma) did it give?
The TGI was > 57.5 µM.

What about the TGI (HCT-15 colon) of the same molecule?
The TGI was 39.2 µM.

What about the TGI (SR leukemia) of the same molecule?
Its TGI is 21.1 µM.

What about the TGI (K-562 leukemia) of the same molecule?
The TGI was 27.9 µM.

What about the TGI (OVCAR-4 ovarian) of the same molecule?
The TGI was 54.7 µM.

And the TGI (SK-MEL-28 melanoma)?
The TGI was 25.4 µM.

What about the TGI (OVCAR-3 ovarian) of the same molecule?
Its TGI is 31.2 µM.

What about the TGI (NCI/ADR-RES ovarian) of the same molecule?
The TGI was 7.05 µM.

And the TGI (SN12C renal)?
Its TGI is > 69.5 µM.

And the TGI (SK-MEL-2 melanoma)?
Its TGI is > 42.4 µM.

What about the TGI (IGROV1 ovarian) of the same molecule?
The TGI was > 61.3 µM.

What about the TGI (BT-549 breast) of the same molecule?
Its TGI is > 100 µM.

And the TGI (OVCAR-5 ovarian)?
The TGI was > 100 µM.

What about the TGI (DLD-1 colon) of the same molecule?
Its TGI is 37.7 µM.

And the TGI (DU-145 prostate)?
Its TGI is > 100 µM.

What about the TGI (HS 578T breast) of the same molecule?
The TGI was > 100 µM.

What about the TGI (RXF 393 renal) of the same molecule?
The TGI was 10.9 µM.

What about the TGI (SK-OV-3 ovarian) of the same molecule?
Its TGI is > 100 µM.

And the TGI (HOP-62 NSCLC)?
Its TGI is > 100 µM.

And the TGI (A549 NSCLC)?
Its TGI is > 80.3 µM.

And the TGI (HT29 colon)?
Its TGI is > 69.6 µM.

What about the TGI (HCT-116 colon) of the same molecule?
Its TGI is 43.5 µM.

What about the TGI (DMS 273 small cell lung) of the same molecule?
The TGI was 42.7 µM.

What about the TGI (MALME-3M melanoma) of the same molecule?
Its TGI is 24.9 µM.

What about the TGI (MDA-MB-435) of the same molecule?
The TGI was > 100 µM.

And the TGI (XF 498 CNS)?
Its TGI is 16.9 µM.

What about the TGI (RPMI-8226 leukemia) of the same molecule?
Its TGI is 14.1 µM.

And the TGI (LOX IMVI melanoma)?
Its TGI is 19.3 µM.

What about the TGI (EKVX NSCLC) of the same molecule?
Its TGI is > 100 µM.

What about the TGI (M14 melanoma) of the same molecule?
The TGI was 25.2 µM.

And the TGI (SNB-19 CNS)?
Its TGI is > 100 µM.

What about the TGI (CCRF-CEM leukemia) of the same molecule?
The TGI was 18.4 µM.

And the TGI (NCI-H522 lung)?
Its TGI is 11 µM.

What about the TGI (MOLT-4 leukemia) of the same molecule?
Its TGI is 6.77 µM.

What about the TGI (UO-31 renal) of the same molecule?
Its TGI is 35.7 µM.

What about the TGI (KM12 colon) of the same molecule?
The TGI was > 100 µM.

What about the TGI (NCI-H23 lung) of the same molecule?
The TGI was > 75.8 µM.

What about the TGI (SF-539 CNS) of the same molecule?
The TGI was > 56.4 µM.

And the TGI (SF-268 CNS)?
Its TGI is > 35.9 µM.

What about the TGI (SF-295 CNS) of the same molecule?
Its TGI is > 100 µM.

And the TGI (NCI-H460 lung)?
The TGI was > 75.2 µM.

And the TGI (PC-3 prostate)?
Its TGI is > 100 µM.

What about the TGI (COLO 205 colon) of the same molecule?
Its TGI is 47.4 µM.

And the TGI (SW-620 colon)?
The TGI was 13.2 µM.

What about the TGI (HOP-18 NSCLC) of the same molecule?
Its TGI is > 100 µM.

And the TGI (NCI-H226 lung)?
Its TGI is > 35.3 µM.

What about the TGI (HL-60(TB) leukemia) of the same molecule?
Its TGI is 11.6 µM.

And the TGI (CAKI-1 renal)?
Its TGI is 26.1 µM.

And the TGI (MDA-N)?
Its TGI is > 100 µM.

What about the TGI (SNB-75 CNS) of the same molecule?
Its TGI is 32.6 µM.

What about the TGI (RXF-631 renal) of the same molecule?
Its TGI is 35.6 µM.

And the TGI (MDA-MB-231 breast)?
The TGI was > 100 µM.

What about the TGI (T-47D breast) of the same molecule?
The TGI was 24.1 µM.

And the TGI (MCF7 breast)?
The TGI was > 100 µM.

And the TGI (HOP-92 NSCLC)?
Its TGI is 37.9 µM.

What about the TGI (HCC-2998 colon) of the same molecule?
Its TGI is > 72.5 µM.

And the TGI (786-0 renal)?
The TGI was 27 µM.

What about the TGI (ACHN renal) of the same molecule?
Its TGI is 32.3 µM.

What about the TGI (TK-10 renal) of the same molecule?
The TGI was 52.9 µM.

And the TGI (KM20L2 colon)?
Its TGI is > 66.1 µM.

What about the TGI (LXFL 529 NSCLC) of the same molecule?
Its TGI is 26.3 µM.

And the TGI (UACC-257 melanoma)?
Its TGI is > 93.5 µM.

What about the TGI (SK-MEL-5 melanoma) of the same molecule?
The TGI was 59 µM.

And the TGI (U251 CNS)?
The TGI was > 100 µM.

And the TGI (A498 renal)?
Its TGI is > 97.2 µM.

What about the TGI (OVCAR-8 ovarian) of the same molecule?
The TGI was 58.7 µM.

What does the source list for `Cc1nc2ccccc2c(=O)n1Nc1ccc(C(=O)O)cc1`?
TGI (M19-MEL melanoma): > 100 µM; TGI (UACC-62 melanoma): > 100 µM; TGI (HCT-15 colon): > 100 µM; TGI (K-562 leukemia): > 100 µM; TGI (OVCAR-4 ovarian): > 100 µM; TGI (SK-MEL-28 melanoma): > 100 µM; TGI (OVCAR-3 ovarian): > 100 µM; TGI (NCI/ADR-RES ovarian): > 100 µM; TGI (SN12C renal): > 100 µM; TGI (SK-MEL-2 melanoma): > 100 µM; TGI (IGROV1 ovarian): > 100 µM; TGI (OVCAR-5 ovarian): > 100 µM; TGI (DLD-1 colon): > 100 µM; TGI (RXF 393 renal): > 100 µM; TGI (SK-OV-3 ovarian): > 100 µM; TGI (HOP-62 NSCLC): > 100 µM; TGI (A549 NSCLC): > 100 µM; TGI (HT29 colon): > 100 µM; TGI (HCT-116 colon): > 100 µM; TGI (DMS 273 small cell lung): > 100 µM; TGI (MALME-3M melanoma): > 100 µM; TGI (XF 498 CNS): > 100 µM; TGI (RPMI-8226 leukemia): > 100 µM; TGI (LOX IMVI melanoma): > 100 µM; TGI (EKVX NSCLC): > 100 µM; TGI (SNB-19 CNS): > 100 µM; TGI (P388/ADR leukemia): > 100 µM; TGI (CCRF-CEM leukemia): > 100 µM; TGI (NCI-H522 lung): > 100 µM; TGI (MOLT-4 leukemia): > 100 µM; TGI (UO-31 renal): > 100 µM; TGI (KM12 colon): > 100 µM; TGI (NCI-H23 lung): > 100 µM; TGI (SF-539 CNS): > 100 µM; TGI (SF-268 CNS): > 100 µM; TGI (SF-295 CNS): > 100 µM; TGI (SNB-78 CNS): > 100 µM; TGI (NCI-H460 lung): > 100 µM; TGI (COLO 205 colon): > 100 µM; TGI (SW-620 colon): > 100 µM; TGI (DMS 114 small cell lung): > 100 µM; TGI (HOP-18 NSCLC): > 100 µM; TGI (NCI-H226 lung): > 100 µM; TGI (HL-60(TB) leukemia): > 100 µM; TGI (CAKI-1 renal): > 100 µM; TGI (SNB-75 CNS): > 100 µM; TGI (MCF7 breast): > 100 µM; TGI (HOP-92 NSCLC): > 100 µM; TGI (HCC-2998 colon): > 100 µM; TGI (KM20L2 colon): > 100 µM; TGI (UACC-257 melanoma): > 100 µM; TGI (SK-MEL-5 melanoma): > 100 µM; TGI (SN12K1 renal): > 100 µM; TGI (U251 CNS): > 100 µM; TGI (P388 leukemia): > 100 µM; TGI (A498 renal): > 100 µM; TGI (OVCAR-8 ovarian): > 100 µM
